Experimental data taken from patent US20110230493A1, “1-OXA-8-Azaspiro [4,5] Decabe-8-Carboxamide Compounds as FAAH Inhibitors” (Pfizer Inc., priority 2008, published 2011).
Marks after values point to notes of the source that are not given here.

How the values were obtained:
human FAAH = target: T1, human FAAH (Homo sapiens, UniProt O00519); assay: FAAH assay, human FAAH enzyme inactivation (kinact/Ki); assay type: biochemical; settings: oleamide 50 μM, 30° C.; for hFAAH kinact/Ki: in vitro, pH 7.4; for kinact/KI: pH 7.4, in vitro, read-out: hFAAH kinact/Ki
T1 construct: made in house; host or cells: E. coli
T1 sequence (O00519 1-579): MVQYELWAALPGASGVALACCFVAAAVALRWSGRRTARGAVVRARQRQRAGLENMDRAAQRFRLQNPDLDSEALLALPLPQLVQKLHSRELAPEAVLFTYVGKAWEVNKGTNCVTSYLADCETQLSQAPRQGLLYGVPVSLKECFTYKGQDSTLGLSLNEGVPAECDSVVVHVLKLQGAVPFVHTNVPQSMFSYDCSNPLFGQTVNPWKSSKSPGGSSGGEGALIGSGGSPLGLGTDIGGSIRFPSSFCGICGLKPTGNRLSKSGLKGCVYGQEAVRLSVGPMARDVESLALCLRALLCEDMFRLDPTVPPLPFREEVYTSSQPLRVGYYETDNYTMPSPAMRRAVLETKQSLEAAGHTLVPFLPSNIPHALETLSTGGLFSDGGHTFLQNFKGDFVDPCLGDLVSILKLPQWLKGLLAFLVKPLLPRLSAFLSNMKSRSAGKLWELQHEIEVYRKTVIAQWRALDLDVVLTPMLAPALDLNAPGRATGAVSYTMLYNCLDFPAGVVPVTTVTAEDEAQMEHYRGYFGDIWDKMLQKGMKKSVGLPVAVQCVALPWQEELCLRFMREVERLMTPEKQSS
Method in brief: (§1)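 Oleamide hydrolysis by 1-4 nM purified E. coli-expressed FAAH (substrate 50 μM = Km) coupled to GDH/NADH, pH 7.4 phosphate, 7.5% DMSO and EtOH, 30° C; A340 followed 90 min. kobs from mono-exponential fits; kinact/Ki from kobs-versus-concentration slope, multiplied by two.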

rat FAAH = target: T2, rat FAAH (Rattus norvegicus, UniProt P97612); assay: FAAH assay, rat FAAH enzyme inactivation (kinact/Ki); assay type: biochemical; settings: oleamide 50 μM, 30° C.; for rFAAH kinact/Ki: in vitro, pH 7.4; for kinact/KI: pH 7.4, in vitro, read-out: rFAAH kinact/Ki
T2 construct: made in house; host or cells: E. coli
T2 sequence (P97612 1-579): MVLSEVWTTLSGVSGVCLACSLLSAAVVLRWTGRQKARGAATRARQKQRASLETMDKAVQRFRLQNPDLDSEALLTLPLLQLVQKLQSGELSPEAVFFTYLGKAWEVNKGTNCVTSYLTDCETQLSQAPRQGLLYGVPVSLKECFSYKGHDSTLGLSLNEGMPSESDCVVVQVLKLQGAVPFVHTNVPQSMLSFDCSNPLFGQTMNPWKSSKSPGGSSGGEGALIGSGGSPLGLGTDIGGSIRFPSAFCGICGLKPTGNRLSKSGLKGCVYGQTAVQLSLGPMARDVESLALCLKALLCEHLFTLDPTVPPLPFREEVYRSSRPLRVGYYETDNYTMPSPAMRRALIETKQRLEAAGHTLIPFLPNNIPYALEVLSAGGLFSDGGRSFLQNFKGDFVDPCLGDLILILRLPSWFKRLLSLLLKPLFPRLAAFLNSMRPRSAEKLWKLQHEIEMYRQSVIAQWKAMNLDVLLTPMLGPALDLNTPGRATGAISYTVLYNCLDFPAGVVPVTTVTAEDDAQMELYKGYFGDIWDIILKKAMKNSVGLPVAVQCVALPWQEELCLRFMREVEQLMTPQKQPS
Method in brief: as §1

Male Sprague-Dawley Rats = assay: In vivo Complete Freund's Adjuvant (CFA) efficacy assay, inhibition of allodynia; design: species or system rat; key: (+) indicates the test compound was determined to be efficacious at 3 mpk, oral dosing; (−) indicates the test compound was determined to not be efficacious at 3 mpk, oral dosing; settings: p < 0.05 vs vehicle group
Experimental: For additional information on the CFA efficacy assay, see Jayamanne et al., Brit. J. Pharmacol. 2006, 147, 281-288. Experiments were performed on adult Male Sprague-Dawley Rats (200 g-250 g). Inflammation was induced in the left hindpaw of the rat by an intra-plantar injection of 150 uL Complete Freund's Adjuvant (CFA) (SIGMA F5881). The CFA injection immediately induces local inflammation, paw swelling, and pain that persists for at least two weeks post-injection. Baseline paw withdrawal threshold (PWT) was measured to determine the percent inhibition of allodynia using a set of Von Frey Hairs on day 4 post injection as illustrated by the Dixon Up and Down Method (W. J. Dixon, Ann. Rev. Pharmacol. Toxicol. 1980, 20:441-462). […] Following Dose administration PWT threshold was evaluated again at four hours postdose. The Sprague-Dawley rats used in this assay were purchased from Harlan, 8520 Allison Pointe Blvd., Indianapolis, Ind., 46250, U.S.A. Sprague-Dawley rats are an outbred breed of albino rats first produced by the Sprague Dawley farms in Madison, Wis., U.S.A.
Percent Inhibition of Allodynia was determined by the formula: […]
ΔPWT measurements were averaged for each treatment group and statistical comparisons between groups were made using ANOVA and Dunnett's two-tailed test. […]

[1] = 3 mpk, oral dosing, PWT four hours postdose

SMILES | hFAAH kinact/Ki (human FAAH) [M⁻¹ s⁻¹] | rFAAH kinact/Ki (rat FAAH) [M⁻¹ s⁻¹] | kinact/KI (human FAAH) [M⁻¹ s⁻¹] | kinact/KI (rat FAAH) [M⁻¹ s⁻¹] | CFA Efficacy (Male Sprague-Dawley Rats; [1]) | CFA Efficacy (Male Sprague-Dawley Rats; 10 mpk, intraperitoneal dosing)
O=C(Nc1cccnn1)N1CCC2(CC1)C[C@H](c1cccc(Oc3ccc(Cl)cn3)c1)CO2 [Example 11, (3R)-3-{3-[(5-chloropyridin-2-yl)oxy]phenyl}-N-pyridazin-3-yl-1-oxa-8-azaspiro[4.5]decane-8-carboxamide] | – | – | 2420 | 1020 | (+) | –
O=C(Nc1cccnn1)N1CCC2(CC1)C[C@@H](c1cccc(Oc3ccc(Br)cn3)c1)CO2 [Example 10, (3S)-3-{3-[(5-bromopyridin-2-yl)oxy]phenyl}-N-pyridazin-3-yl-1-oxa-8-azaspiro[4.5]decane-8-carboxamide] | – | – | 2690 | 5890 | (+) | –
O=C(Nc1cccnn1)N1CCC2(CC1)C[C@H](c1cccc(Oc3ccc(C(F)(F)F)cn3)c1)CO2 [Example 3, (3R)—N-pyridazin-3-yl-3-(3-{[5-(trifluoromethyl)pyridin-2-yl]oxy}phenyl)-1-oxa-8-azaspiro[4.5]decane-8-carboxamide] | – | – | 3040 | 2240 | – | (−)^c
Cc1noc(NC(=O)N2CCC3(CC2)CC(c2ccc(Cl)c(Cl)c2)CO3)c1C (single isomer, unassigned) [Example 37, 3-(3,4-dichlorophenyl)-N-(3,4-dimethylisoxazol-5-yl)-1-oxa-8-azaspiro[4.5]decane-8-carboxamide] | 4130 | – | – | 4540 | (+) | –
Cc1noc(NC(=O)N2CCC3(CC2)CC(c2cccc(OC(F)(F)F)c2)CO3)c1C (single isomer, unassigned) [Example 34, N-(3,4-dimethylisoxazol-5-yl)-3-[3-(trifluoromethoxy)phenyl]-1-oxa-8-azaspiro[4.5]decane-8-carboxamide] | 1840 | 2610 | – | – | (+) | –
Cc1noc(NC(=O)N2CCC3(CC2)CC(c2cccc(Cl)c2)CO3)c1C (single isomer, unassigned) [Example 36, 3-(3-chlorophenyl)-N-(3,4-dimethylisoxazol-5-yl)-1-oxa-8-azaspiro[4.5]decane-8-carboxamide] | 2590 | 3830 | – | – | (+) | –
O=C(Nc1cccnn1)N1CCC2(CC1)C[C@H](c1cccc(Oc3ccc(Br)cn3)c1)CO2 [Example 9, (3R)-3-{3-[(5-bromopyridin-2-yl)oxy]phenyl}-N-pyridazin-3-yl-1-oxa-8-azaspiro[4.5]decane-8-carboxamide] | – | – | 4970 | 3340 | (+) | –
Cc1noc(NC(=O)N2CCC3(CC2)C[C@H](c2ccc(OCc4ccc(F)cc4)cc2)CO3)c1C [Example 41, (3R)—N-(3,4-dimethylisoxazol-5-yl)-3-{4-[(4-fluorobenzyl)oxy]phenyl}-1-oxa-8-azaspiro[4.5]decane-8-carboxamide] | – | – | 12500 | 15800 | (+) | –

Now from value to compound, other results behind:

hFAAH kinact/Ki (human FAAH) [M⁻¹ s⁻¹] | rFAAH kinact/Ki (rat FAAH) [M⁻¹ s⁻¹] | kinact/KI (human FAAH) [M⁻¹ s⁻¹] | kinact/KI (rat FAAH) [M⁻¹ s⁻¹] | SMILES | CFA Efficacy (Male Sprague-Dawley Rats; [1]) | CFA Efficacy (Male Sprague-Dawley Rats; 10 mpk, intraperitoneal dosing)
3120 | 1150 | – | – | Cc1noc(NC(=O)N2CCC3(CC2)CC(c2noc(-c4ccc(C(F)(F)F)cc4)n2)CO3)c1C (single isomer, unassigned) [Example 76, N-(3,4-dimethylisoxazol-5-yl)-3-{5-[4-(trifluoromethyl)phenyl]-1,2,4-oxadiazol-3-yl}-1-oxa-8-azaspiro[4.5]decane-8-carboxamide] | (+) | –
– | – | 16700 | 17300 | Cc1noc(NC(=O)N2CCC3(CC2)C[C@H](c2ccc(OCc4ccc(F)c(F)c4)cc2)CO3)c1C [Example 51, (3R)-3-{4-[(3,4-difluorobenzyl)oxy]phenyl}-N-(3,4-dimethylisoxazol-5-yl)-1-oxa-8-azaspiro[4.5]decane-8-carboxamide] | (+) | –
– | – | 29800 | 9640 | Cn1nnnc1NC(=O)N1CCC2(CC1)C[C@@H](c1ccc(OCc3ccc(F)c(F)c3)cc1)CO2 [Example 89, (3S)-3-{4-[(3,4-difluorobenzyl)oxy]phenyl}-N-(1-methyl-1H-tetrazol-5-yl)-1-oxa-8-azaspiro[4.5]decane-8-carboxamide] | (+) | –
3760 | 2110 | – | – | Cn1nnnc1NC(=O)N1CCC2(CC1)CC(c1cccc(C(F)(F)F)c1)CO2 (single isomer, unassigned) [Example 94, N-(1-methyl-1H-tetrazol-5-yl)-3-[3-(trifluoromethyl)phenyl]-1-oxa-8-azaspiro[4.5]decane-8-carboxamid] | (+) | –
– | – | 15900 | 4110 | Cn1nnnc1NC(=O)N1CCC2(CC1)C[C@@H](c1ccc(OCc3cccc(F)c3)cc1)CO2 [Example 87, (3S)-3-{4-[(3-fluorobenzyl)oxy]phenyl}-N-(1-methyl-1H-tetrazol-5-yl)-1-oxa-8-azaspiro[4.5]decane-8-carboxamide] | (+) | –
– | – | 3130 | 879 | Cc1noc(NC(=O)N2CCC3(CC2)C[C@H](c2cccc(-c4ccc(F)cc4)c2)CO3)c1C [Example 59, (3R)—N-(3,4-dimethylisoxazol-5-yl)-3-(4′-fluorobiphenyl-3-yl)-1-oxa-8-azaspiro[4.5]decane-8-carboxamide] | (+) | –
– | – | 30800 | 22600 | Cn1nnnc1NC(=O)N1CCC2(CC1)C[C@H](c1ccc(OCc3ccc(F)cc3)cc1)CO2 [Example 90, (3R)-3-{4-[(4-fluorobenzyl)oxy]phenyl}-N-(1-methyl-1H-tetrazol-5-yl)-1-oxa-8-azaspiro[4.5]decane-8-carboxamide] | (+) | –
– | – | 6240 | 7130 | Cc1noc(NC(=O)N2CCC3(CC2)CC(c2ccc(OCc4cccc(Cl)c4)c(Cl)c2)CO3)c1C (single isomer, unassigned) [Example 45, 3-{3-chloro-4-[(3-chlorobenzyl)oxy]phenyl}-N-(3,4-dimethylisoxazol-5-yl)-1-oxa-8-azaspiro[4.5]decane-8-carboxamide] | (+) | –
– | – | 3570 | 1610 | Cc1noc(NC(=O)N2CCC3(CC2)CC(c2noc(-c4ccc(C(F)(F)F)cc4)n2)CO3)c1C (single isomer, unassigned) [Example 75, N-(3,4-dimethylisoxazol-5-yl)-3-{5-[4-(trifluoromethyl)phenyl]-1,2,4-oxadiazol-3-yl}-1-oxa-8-azaspiro[4.5]decane-8-carboxamide] | (+) | –
– | – | 2110 | 2750 | Cc1noc(NC(=O)N2CCC3(CC2)C[C@@H](c2cccc(-c4ccc(F)cc4)c2)CO3)c1C [Example 60, (3S)—N-(3,4-dimethylisoxazol-5-yl)-3-(4′-fluorobiphenyl-3-yl)-1-oxa-8-azaspiro[4.5]decane-8-carboxamide] | (+) | –
